Key:
A498 = assay: NCI 60 one dose (10 μM) anticancer assay; format: cell-based; details: Homo sapiens, 10 µM one dose, Renal Cancer, read-out: Growth Inhibition % A498
Experimental: (§1) Some of the synthesized compounds were selected by the NCI, Bethesda, MD, USA for evaluation of their anticancer activity. An in vitro one dose (10 μM) anticancer assay was conducted on a full NCI 60-cell line panel derived from 9 different cancer types. Table 2 presents the percent of growth inhibition of some cell lines. […] K-562 and MOLT-4 from leukemia, NCI-H522 from non-small cell lung cancer, HCT-116 from colon cancer, SK-MEL-5 and UACC-62 from melanoma, UO-31 from renal cancer, PC-3 from prostate cancer and HS 578T and T-47D from breast cancer are the most sensitive cell lines to the tested compounds. No growth inhibition was observed from the selected compounds against COLO205, HCC-2998, MALME-3M, SK-MEL-28, DU-145 and BT-549 cell lines. […] Against UO-31 from renal cancer and PC-3 from prostate cancer, it inhibited the growth of 44% and 58% of the cancer cells, respectively.

A549/ATTC = assay: NCI 60 one dose (10 μM) anticancer assay; format: cell-based; details: Homo sapiens, 10 µM one dose, Non-small cell lung Cancer, read-out: Growth Inhibition % A549/ATTC
Experimental: as §1

CAK1-1 = assay: NCI 60 one dose (10 μM) anticancer assay; format: cell-based; details: 10 µM one dose; Renal Cancer; read-out: Growth Inhibition % CAK1-1
Experimental: as §1

EKVX = assay: NCI 60 one dose (10 μM) anticancer assay; format: cell-based; details: Homo sapiens, 10 µM one dose, Non-small cell lung Cancer, read-out: Growth Inhibition % EKVX
Experimental: as §1

HOP-62 = assay: NCI 60 one dose (10 μM) anticancer assay; format: cell-based; details: Homo sapiens, 10 µM one dose, Non-small cell lung Cancer, read-out: Growth Inhibition % HOP-62
Experimental: as §1

HS 578T = assay: NCI 60 one dose (10 μM) anticancer assay; format: cell-based; details: Homo sapiens, 10 µM one dose, Breast Cancer, read-out: Growth Inhibition % HS 578T
Experimental: as §1

K-562 = assay: NCI 60 one dose (10 μM) anticancer assay; format: cell-based; details: Homo sapiens, K562; 10 µM one dose; Leukemia; read-out: Growth Inhibition % K-562
Experimental: as §1

KM12 = assay: NCI 60 one dose (10 μM) anticancer assay; format: cell-based; details: Homo sapiens, 10 µM one dose, Colon Cancer, read-out: Growth Inhibition % KM12
Experimental: as §1

MCF7 = assay: NCI 60 one dose (10 μM) anticancer assay; format: cell-based; details: Homo sapiens, 10 µM one dose, Breast Cancer, read-out: Growth Inhibition % MCF7
Experimental: as §1

MOLT-4 = assay: NCI 60 one dose (10 μM) anticancer assay; format: cell-based; details: Homo sapiens, 10 µM one dose, Leukemia, read-out: Growth Inhibition % MOLT-4
Experimental: as §1

NCI-H226 = assay: NCI 60 one dose (10 μM) anticancer assay; format: cell-based; details: Homo sapiens, 10 µM one dose, Non-small cell lung Cancer, read-out: Growth Inhibition % NCI-H226
Experimental: as §1

NCI-H460 = assay: NCI 60 one dose (10 μM) anticancer assay; format: cell-based; details: Homo sapiens, 10 µM one dose, Non-small cell lung Cancer, read-out: Growth Inhibition % NCI-H460
Experimental: as §1

NCI-H522 = assay: NCI 60 one dose (10 μM) anticancer assay; format: cell-based; details: Homo sapiens, 10 µM one dose, Non-small cell lung Cancer, read-out: Growth Inhibition % NCI-H522
Experimental: as §1

OVCAR-5 = assay: NCI 60 one dose (10 μM) anticancer assay; format: cell-based; details: Homo sapiens, 10 µM one dose, Ovarian Cancer, read-out: Growth Inhibition % OVCAR-5
Experimental: as §1

PC-3 = assay: NCI 60 one dose (10 μM) anticancer assay; format: cell-based; details: Homo sapiens, 10 µM one dose, Prostate Cancer, read-out: Growth Inhibition % PC-3
Experimental: as §1

SNB-75 = assay: NCI 60 one dose (10 μM) anticancer assay; format: cell-based; details: Homo sapiens, 10 µM one dose, CNS Cancer, read-out: Growth Inhibition % SNB-75
Experimental: as §1

HSF cell line = assay: In vitro growth inhibitory activity on normal human skin fibroblast, SRB assay; format: cell-based; details: for IC50: Homo sapiens, HSF, SRB assay, 48 h, normal cell line, mean of three independent experiments
Experimental: The anticancer activity of the synthesized compounds was measured in vitro using the Sulfo-Rhodamine-B (SRB) assay according to Skehan et al.. Briefly, HepG2 or HSF cells (obtained from Nawah Scientific) were inoculated in 96-well microtiter plates (10^4 cells/ well) for 24 h before treatment with the tested compounds to allow attachment of cells to the walls of the plates. Test compounds were dissolved in DMSO immediately before use and diluted to the appropriate volume just before addition to the cell culture. […] Three wells were prepared for each individual dose. Monolayer cells were incubated with the compounds for 48 h at 37 °C and in an atmosphere of 5% CO2. After 48 h, cells were fixed, washed and stained for 30 min with 0.4% (w/v) SRB dissolved in 1% acetic acid. Unbound dye was removed by four washes with 1% acetic acid and attached stain was recovered with Tris-EDTA buffer. Color intensity was measured in an ELISA reader. The relation between surviving fraction and drug concentration was plotted to get the survival curve.

HOP-92 = assay: NCI 60 one dose (10 μM) anticancer assay; format: cell-based; details: Homo sapiens, 10 µM one dose, Non-small cell lung Cancer, read-out: Growth Inhibition % HOP-92
Experimental: as §1

PRMI-8226 = assay: NCI 60 one dose (10 μM) anticancer assay; format: cell-based; details: 10 µM one dose; Leukemia; read-out: Growth Inhibition % PRMI-8226
Experimental: as §1

VEGFR-2 = VEGFR-2 (Homo sapiens, UniProt P35968); assay: Biochemical kinase assay (Kinase-Glo Plus luminescence)
VEGFR-2, sequence (P35968 20-1356): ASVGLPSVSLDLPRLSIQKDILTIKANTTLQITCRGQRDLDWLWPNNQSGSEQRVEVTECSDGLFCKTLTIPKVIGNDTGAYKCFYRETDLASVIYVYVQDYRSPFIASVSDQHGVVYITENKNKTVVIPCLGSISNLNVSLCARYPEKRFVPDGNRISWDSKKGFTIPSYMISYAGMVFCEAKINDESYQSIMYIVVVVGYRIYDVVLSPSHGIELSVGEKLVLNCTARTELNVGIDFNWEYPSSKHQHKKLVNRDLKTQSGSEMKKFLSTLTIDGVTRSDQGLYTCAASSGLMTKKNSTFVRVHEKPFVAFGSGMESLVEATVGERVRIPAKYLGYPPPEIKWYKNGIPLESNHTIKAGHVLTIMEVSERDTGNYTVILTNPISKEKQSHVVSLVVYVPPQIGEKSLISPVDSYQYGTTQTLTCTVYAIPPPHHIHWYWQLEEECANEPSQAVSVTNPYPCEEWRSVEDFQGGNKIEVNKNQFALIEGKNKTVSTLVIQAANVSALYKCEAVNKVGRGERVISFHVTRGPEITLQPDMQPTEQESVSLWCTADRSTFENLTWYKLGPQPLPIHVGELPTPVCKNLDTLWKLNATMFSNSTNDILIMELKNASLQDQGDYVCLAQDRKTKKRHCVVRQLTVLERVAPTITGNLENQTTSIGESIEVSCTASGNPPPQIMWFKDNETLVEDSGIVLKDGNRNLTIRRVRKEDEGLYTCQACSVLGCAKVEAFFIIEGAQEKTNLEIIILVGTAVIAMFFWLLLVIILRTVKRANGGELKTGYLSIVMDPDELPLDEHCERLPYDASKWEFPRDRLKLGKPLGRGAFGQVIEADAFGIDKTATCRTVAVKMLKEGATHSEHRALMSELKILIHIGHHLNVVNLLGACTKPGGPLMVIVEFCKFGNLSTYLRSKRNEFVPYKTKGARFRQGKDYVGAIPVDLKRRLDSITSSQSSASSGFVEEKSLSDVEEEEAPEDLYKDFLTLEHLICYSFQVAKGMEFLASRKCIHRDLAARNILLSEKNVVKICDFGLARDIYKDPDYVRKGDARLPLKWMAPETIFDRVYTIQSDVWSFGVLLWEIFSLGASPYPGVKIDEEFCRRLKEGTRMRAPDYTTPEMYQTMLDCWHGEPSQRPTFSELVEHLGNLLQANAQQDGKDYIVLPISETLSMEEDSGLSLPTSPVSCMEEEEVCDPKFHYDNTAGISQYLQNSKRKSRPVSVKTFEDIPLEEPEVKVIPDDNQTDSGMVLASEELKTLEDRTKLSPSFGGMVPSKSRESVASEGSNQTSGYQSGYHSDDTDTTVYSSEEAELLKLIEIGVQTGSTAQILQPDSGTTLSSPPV
Experimental: This assay was carried out using the VEGFR-2 kinase enzyme system or FGFR-1 kinase enzyme system and Kinase-Glo Plus luminescence kinase (Promega) kits according to the manufacturers´ protocols. This assay evaluated the activity of kinase by measuring the amount of ATP remaining in solution after a kinase reaction. The luminescent signal from the assay was related to the quantity of ATP available, which was inversely proportional to the amount of kinase activity. […] Subsequently, serial dilutions were carried out, and 5 µL of the dilution was added to a 50 µL reaction. The enzymatic reactions were performed at 30 °C for 45 minutes. The 50 µL reaction mixture contained 40 mM Tris, pH 7.4, 10 mM MgCl2, 0.1 mg/mL BSA, 1 mM DTT, 0.2 mg/ml Poly (Glu, Tyr) substrate, 10 μM ATP and protein. After the enzymatic reaction, 50 µL of Kinase-Glo Plus Luminescence kinase assay solution was added to each reaction, and the plates were incubated for 15 minutes at room temperature. The luminescence signal was measured using a Tecan–spark multimode microplate reader. The difference between luminescence intensities in the absence of Kinase (Lut) and in the presence of Kinase (Luc) was defined as 100% activity (Lut − Luc). Using a luminescence signal (Lu) in the presence of the compound, % activity was calculated as: % activity = {(Lut − Lu)/(Lut − Luc)}×100%, where Lu = the luminescence intensity in the presence of the compound.

SMILES	inhibition at 10 µM (A498) [%]	inhibition at 10 µM (A549/ATTC) [%]	inhibition at 10 µM (CAK1-1) [%]	inhibition at 10 µM (EKVX) [%]	inhibition at 10 µM (HOP-62) [%]	inhibition at 10 µM (HS 578T) [%]	inhibition at 10 µM (K-562) [%]	inhibition at 10 µM (KM12) [%]	inhibition at 10 µM (MCF7) [%]	inhibition at 10 µM (MOLT-4) [%]	inhibition at 10 µM (NCI-H226) [%]	inhibition at 10 µM (NCI-H460) [%]	inhibition at 10 µM (NCI-H522) [%]	inhibition at 10 µM (OVCAR-5) [%]	inhibition at 10 µM (PC-3) [%]	inhibition at 10 µM (SNB-75) [%]	IC50 (HSF cell line) [µM]	IC50 (VEGFR-2) [nM]	further results
Cc1ccc(-c2nc3ccccc3n2CC(=O)N/N=C/c2ccc(OCc3ccccc3)cc2)o1 [Compound 17d, (E)-N′-(4-(Benzyloxy)benzylidene)-2-(2-(5-methylfuran-2-yl)-1H-benzo[d]imidazol-1-yl)acetohydrazide]	17	23	21	21	17	32	41	< 10	19	40	< 10	< 10	27	< 10	29	20	–	–	–
Cc1ccc(-c2nc3ccccc3n2CC(=O)N/N=C/c2cccc(OCc3ccccc3)c2)o1 [Compound 17b, (E)-N′-(3-(Benzyloxy)benzylidene)-2-(2-(5-methylfuran-2-yl)-1H-benzo[d]imidazol-1-yl)acetohydrazide]	16	42	33	43	15	25	54	23	48	58	25	27	28	14	46	39	4.8	140 ± 4	inhibition at 10 µM (HOP-92): 32%; inhibition at 10 µM (PRMI-8226): 50%
CC(C)c1nc2ccccc2n1CC(=O)N/N=C/c1cccc(OCc2ccccc2)c1 [Compound 17a, (E)-N′-(3-(Benzyloxy)benzylidene)-2-(2-isopropyl-1H-benzo[d]imidazol-1-yl)acetohydrazide]	17	16	< 10	21	< 10	20	57	< 10	< 10	50	29	< 10	33	< 10	58	15	19.9	110 ± 3	selectivity to the HepG2 cell line over the normal HSF cell line (HSF cell line; from IC50 HSF vs IC50 HepG2): about ten-fold higher selectivity

Source: paper PMC7071059, “Targeting Receptor Tyrosine Kinase VEGFR-2 in Hepatocellular Cancer: Rational Design, Synthesis and Biological Evaluation of 1,2-Disubstituted Benzimidazoles” (Molecules, 2020)
